# Measured values as given in patent US11001563B2, “SSAO inhibitor” (SHANDONG DANHONG PHARMACEUTICAL CO., LTD., priority 2017, dated 2021).
# Target: T1, VAP-1/SSAO (Homo sapiens (Human), UniProt Q16853)
# Assay: VAP-1 cell activity assay (HUVEC or CHO cells transfected with VAP-1/pCDNA (3.1) plasmid, Amplex Red)
# Format: cell-based
# Settings: HUVEC or CHO cells transfected with VAP-1 plasmid; read-out: VAP-1/SSAO Cellular Inhibitory Activity IC50
# Procedure: The inhibition of the sample on VAP-1 cell activity was measured by using an Amplex® Red Monoamine Oxidase kit (Invitrogen #A12214).
# The cultured HUVEC or CHO cells were plated into a 6-well plate at a density of 0.8 M/well, placed in a 37° C., 5% CO2 incubator for incubation for 24 hours, and then the cells was transferred with a Lipo2000 reagent and a VAP-1/pCDNA (3.1) plasmid, and liquid was changed for the cells after 5 hours (Lipo2000 was toxic to the cells); after 24 hours, the cells were digested and plated into 384-well plates with a density of 25 μl, 10000 cells/well, and liquid was replaced with medium without FBS for the cells after 6-7 hours, and the cell plates were incubated overnight at 37° C. in a 5% CO2 incubator.
# 1) Dilution of the compound: serial dilution in 4× gradient was carried out with 100% DMSO, 10 points were diluted, the starting concentration of the to-be-tested compound was 0.5 mM (final concentration was 1 μM); 100 nl of compound solution was transferred to a 384-well cell assay plate with ECHO. Negative control wells: 100 nl of DMSO; background control wells: 100 nl DMSO+25 μL medium.
# 2) The reaction was carried out in the dark at room temperature for 30 min.
# 3) Preparation of Amplex Red reagent+HRP+benzylamine substrate working solution: Amplex Red reagent+HRP+benzylamine substrate working solution (200 μM Amplex Red reagent+1 U/mL HRP+1 mM benzylamine): 45 μl of 20 mM Amplex Red reagent mother solution, 22.5 μl of 200 U/ml horseradish peroxidase (HRP) mother solution and 45 ul of 100 mM benzylamine were tanken and added to 4.3875 ml of 1× reaction buffer.
# 4) After 30 min, 25 μl of the substrate working solution was added to a 384-well plate, and a final concentration was 100 μM Amplex Red reagent+0.5 U/mL HRP+0.5 mM benzylamine, respectively.
# 5) The reaction was carried out in the dark at room temperature for 60 minutes, and the fluorescence value was measured by Envision: the excitation wave was 535 nm, and the emission wave was 590 nm.
# 6) Inhibition rate calculation formula: % inhibition rate=(1−(test hole minus background−positive control well minus background)/(negative control well minus background-positive control well minus background))*100
# 7) The data were analyzed with Prism. The IC50 of the sample against VAP-1 cells was calculated.
# T1 sequence (Q16853 whole entry): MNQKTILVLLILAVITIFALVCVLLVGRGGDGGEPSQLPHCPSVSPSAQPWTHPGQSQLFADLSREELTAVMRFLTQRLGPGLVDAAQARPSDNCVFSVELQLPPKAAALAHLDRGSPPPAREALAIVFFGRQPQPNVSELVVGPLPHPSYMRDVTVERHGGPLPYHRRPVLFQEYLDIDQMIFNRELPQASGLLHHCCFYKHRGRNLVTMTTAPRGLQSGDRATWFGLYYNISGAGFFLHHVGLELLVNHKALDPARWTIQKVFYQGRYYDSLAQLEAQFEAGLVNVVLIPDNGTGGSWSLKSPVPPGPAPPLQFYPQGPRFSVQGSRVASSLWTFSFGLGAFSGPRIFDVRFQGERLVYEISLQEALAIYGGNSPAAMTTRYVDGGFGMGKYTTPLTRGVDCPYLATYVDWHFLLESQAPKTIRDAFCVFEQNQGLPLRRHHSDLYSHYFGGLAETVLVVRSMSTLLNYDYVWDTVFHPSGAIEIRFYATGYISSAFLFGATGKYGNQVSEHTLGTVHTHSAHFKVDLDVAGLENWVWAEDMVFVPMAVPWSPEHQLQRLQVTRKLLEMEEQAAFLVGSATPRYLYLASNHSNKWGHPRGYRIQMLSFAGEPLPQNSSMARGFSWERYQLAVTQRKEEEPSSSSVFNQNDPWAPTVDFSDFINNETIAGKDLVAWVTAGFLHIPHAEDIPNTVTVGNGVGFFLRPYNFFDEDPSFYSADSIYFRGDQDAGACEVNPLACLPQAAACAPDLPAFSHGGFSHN
row,SMILES,IC50 [nM]
1,CCn1nnc(-c2ccc(OC/C(=C/F)CN)cc2)n1 [WX014],0.3
2,NC/C(=C\F)COc1ccc(-c2nc(C3CC3)no2)cc1 [WX016],0.2
3,NC/C(=C\F)COc1ccc(-c2nc(C3CC3)n[nH]2)cc1 [WX034],0.4

# The remaining lines, values ahead:
row,IC50 [nM],SMILES
1,0.8,NC/C(=C\F)COc1ccc(-c2nc(C3(F)CC3)n[nH]2)cc1 [WX087]
2,1.6,NC/C(=C\F)COc1ccc(-c2nc(C(F)F)n[nH]2)cc1 [WX088]
3,1.3,CC(C)n1nc(-c2ccc(OC/C(=C/F)CN)cc2)nc1C1CC1 [WX091]
4,0.2,Cn1nc(-c2ccc(OC/C(=C/F)CN)cc2)nc1C1CCOCC1 [WX095]
5,0.3,CCCc1n[nH]c(-c2ccc(OC/C(=C/F)CN)cc2)n1 [WX097]
6,0.4,NC/C(=C\F)COc1ccc(-c2nc(CC(F)(F)F)n[nH]2)cc1 [WX101]
7,0.7,Cn1nc(CC(F)(F)F)nc1-c1ccc(OC/C(=C/F)CN)cc1 [WX104]
8,1.5,Cn1nc(-c2ccc(OC/C(=C/F)CN)cc2Cl)nc1N1CCOCC1 [WX107]
9,0.7,CC(C)n1nc(C(F)F)nc1-c1ccc(OC/C(=C/F)CN)cc1 [WX109]
10,0.9,NC/C(=C\F)COc1ccc(-c2nc(C3CC3)n(CCO)n2)cc1 [WX112]
11,0.9,NC/C(=C\F)COc1ccc(-c2nc(C3CC3)n(CC(F)(F)F)n2)cc1 [WX113]
12,0.9,Cn1nc(C2(F)CC2)nc1-c1ccc(OC/C(=C/F)CN)cc1 [WX117]

# Target: T1, VAP-1/SSAO
# Assay: Human VAP-1 enzyme activity assay (Amplex Red Monoamine Oxidase kit)
# Format: biochemical
# Settings: 10 nM VAP-1 enzyme, 30 min preincubation, benzylamine substrate; read-out: Human Recombinant VAP-1/SSAO Enzyme Inhibitory Activity IC50
# Procedure: Human VAP-1 enzyme activity assay:
# The inhibition of the sample on VAP-enzyme activity was measured by using an Amplex® Red Monoamine Oxidase kit (Invitrogen #A12214). 100 nL of the gradiently-diluted to-be-tested compound (solvent DMSO) was added to a 384-well plate. 25 μL of 10 nM VAP-1 enzyme solution was added and incubated for 30 minutes at room temperature. A substrate mixture of VAP-1 enzyme (200 μM Amplex Red, 1 U/mL HRP, 1 mM Benzylamine) was added and incubated for 60 minutes at room temperature. After the incubation, the fluorescent signal was read with a microplate reader Envision (excitation light wavelength 530-560 nm, emission light wavelength 590 nm). The fluorescence signal value after the background signal was removed was analyzed by Prism software, and the IC50 of the sample against the VAP-1 enzyme was calculated.
row,SMILES,IC50 [nM]
1,Cc1nnc(-c2ccc(OC/C(=C/F)CN)cc2)o1 [WX004],2.5
2,Cc1n[nH]c(-c2ccc(OC/C(=C/F)CN)cc2)n1 [WX009],3.7
3,CCn1nnc(-c2ccc(OC/C(=C/F)CN)cc2)n1 [WX014],0.8
4,NC/C(=C\F)COc1ccc(-c2nc(C3CC3)no2)cc1 [WX016],1
5,NC/C(=C\F)COc1ccc(-c2nc(-c3ccccc3)no2)cc1 [WX017],0.8
6,CC(C)(C)c1noc(-c2ccc(OC/C(=C/F)CN)cc2)n1 [WX019],2
7,NC/C(=C\F)COc1ccc(-c2ncccn2)cc1 [WX021],0.3
8,Cc1csc(-c2ccc(OC/C(=C/F)CN)cc2)n1 [WX022],0.3
9,NC/C(=C\F)COc1ccc(-c2nc3ccccc3o2)cc1 [WX023],0.4
10,Cc1ncc(-c2ccc(OC/C(=C/F)CN)cc2)s1 [WX024],0.3
11,Cn1cnc(-c2ccc(OC/C(=C/F)CN)cc2)n1 [WX025],0.9
12,Cn1ncc(-c2ccc(OC/C(=C/F)CN)cc2)n1 [WX026],0.3
13,Cc1nc(-c2ccc(OC/C(=C/F)CN)cc2)no1 [WX028],0.7
14,NC/C(=C\F)COc1ccc(-c2noc3ccccc23)cc1 [WX033],0.3
15,NC/C(=C\F)COc1ccc(-c2nc(C3CC3)n[nH]2)cc1 [WX034],0.8
16,CC(C)(C)c1n[nH]c(-c2ccc(OC/C(=C/F)CN)cc2)n1 [WX035],2.3
17,NC/C(=C\F)COc1ccc(-c2nc(C(F)(F)F)n[nH]2)cc1 [WX036],4.6
18,Cc1coc(-c2ccc(OC/C(=C/F)CN)cc2)n1 [WX039],0.5
19,Cc1cnoc1-c1ccc(OC/C(=C/F)CN)cc1 [WX040],0.5
20,Cc1cn[nH]c1-c1ccc(OC/C(=C/F)CN)cc1 [WX041],0.6
21,CC(C)(C)NC(=O)c1noc(-c2ccc(OC/C(=C/F)CN)cc2)n1 [WX042],1.6

row,SMILES,IC50 [nM]
1,NC/C(=C\F)COc1ccc(-c2noc(C3CC3)n2)cc1 [WX044],0.5
2,CC(C)(C)c1nc(-c2ccc(OC/C(=C/F)CN)cc2)no1 [WX045],1.1
3,CC(C)(C)n1nnc(-c2ccc(OC/C(=C/F)CN)cc2)n1 [WX048],0.6
4,NC/C(=C\F)COc1ccc(-c2nnn(C3CC3)n2)cc1 [WX049],0.3
5,NC/C(=C\F)COc1ccc(N2C(=O)C(=O)c3ccccc32)cc1 [WX052],1.3
6,NC/C(=C\F)COc1ccc(-c2nc3ccc(Cl)cc3[nH]2)cc1 [WX054],0.4
7,NC/C(=C\F)COc1ccc(-c2nc(C3CC3)no2)c(Cl)c1 [WX056],1.7
8,CS(=O)(=O)n1nc(C2CC2)nc1-c1ccc(OC/C(=C/F)CN)cc1 [WX062],1.2
9,NC/C(=C\F)COc1ccc(-c2nc(C3CCCC3)n[nH]2)cc1 [WX064],0.8
10,NC/C(=C\F)COc1ccc(-c2nccc(N3CCOCC3)n2)cc1 [WX070],1.1
11,NC/C(=C\F)COc1ccc(-c2nc(C(N)=O)n[nH]2)cc1 [WX072],0.7
12,NC/C(=C\F)COc1ccc(-c2nc(N3CCOCC3)n[nH]2)cc1 [WX073],0.9
13,NC/C(=C\F)COc1ccc(-c2nc(N)no2)cc1 [WX074],1
14,Cn1nc(-c2ccc(OC/C(=C/F)CN)cc2)nc1C1CC1 [WX075],0.7
15,Cn1nc(C2CC2)nc1-c1ccc(OC/C(=C/F)CN)cc1 [WX076],2.1
16,CC(C)(C)C(=O)Nc1noc(-c2ccc(OC/C(=C/F)CN)cc2)n1 [WX077],1.6
17,NC/C(=C\F)COc1ccc(-c2nnc(NC3CC3)o2)cc1 [WX079],0.2
18,COc1ccc(Cn2nc(-c3ccc(OC/C(=C/F)CN)cc3)nc2NC2CC2)cc1 [WX080],3.8
19,NC/C(=C\F)COc1ccc(-c2nc(NC3CC3)n[nH]2)cc1 [WX081],0.5
20,NC/C(=C\F)COc1ccc(-c2nc(NC3CC3)no2)cc1 [WX082],0.3

# Now from value to molecule:
row,IC50 [nM],SMILES
1,0.4,NC/C(=C\F)COc1ccc(-c2n[nH]c(C(CO)CCl)n2)cc1 (centres unmarked) [WX083]
2,0.2,NC/C(=C\F)COc1ccc(-c2nc(C3CCC3)n[nH]2)cc1 [WX085]
3,9.9,NC/C(=C\F)COc1ccc(-c2nc(N3CCOCC3)cs2)cc1 [WX086]
4,0.3,NC/C(=C\F)COc1ccc(-c2nc(C3(F)CC3)n[nH]2)cc1 [WX087]
5,0.4,NC/C(=C\F)COc1ccc(-c2nc(C(F)F)n[nH]2)cc1 [WX088]
6,1.9,Cn1nc(C(C)(C)C)nc1-c1ccc(OC/C(=C/F)CN)cc1 [WX089]
7,1.1,Cn1nc(-c2ccc(OC/C(=C/F)CN)cc2)nc1C(C)(C)C [WX090]
8,1.2,CC(C)n1nc(-c2ccc(OC/C(=C/F)CN)cc2)nc1C1CC1 [WX091]
9,1.4,CCn1nc(-c2ccc(OC/C(=C/F)CN)cc2)nc1C1CC1 [WX092]
10,0.3,NC/C(=C\F)COc1ccc(-c2nc(C3CCOCC3)n[nH]2)cc1 [WX093]
11,0.3,NC/C(=C\F)COc1ccc(-c2nc(C3CC3)n[nH]2)c(F)c1 [WX094]
12,2.9,Cn1nc(-c2ccc(OC/C(=C/F)CN)cc2)nc1C1CCOCC1 [WX095]
13,0.8,NC/C(=C\F)COc1ccc(-c2nc(C3CC3(F)F)n[nH]2)cc1 (centres unmarked) [WX096]
14,0.5,CCCc1n[nH]c(-c2ccc(OC/C(=C/F)CN)cc2)n1 [WX097]
15,3.4,NC/C(=C\F)COc1cc(F)c(-c2nc(N3CCOCC3)n[nH]2)c(F)c1 [WX099]
16,1.1,NC/C(=C\F)COc1ccc(-c2nc(N3CCOCC3)n[nH]2)c(F)c1 [WX100]
17,0.4,NC/C(=C\F)COc1ccc(-c2nc(CC(F)(F)F)n[nH]2)cc1 [WX101]
18,0.4,Cc1nc(-c2ccc(OC/C(=C/F)CN)cc2)sc1N1CCOCC1 [WX102]

row,IC50 [nM],SMILES
1,0.2,NC/C(=C\F)COc1ccc(-c2nc(CC3CCCC3)n[nH]2)cc1 [WX103]
2,0.3,Cn1nc(CC(F)(F)F)nc1-c1ccc(OC/C(=C/F)CN)cc1 [WX104]
3,0.5,Cn1nc(-c2ccc(OC/C(=C/F)CN)cc2)nc1CC(F)(F)F [WX105]
4,1.1,CC1(C)CN=C(c2ccc(OC/C(=C/F)CN)cc2)N1 [WX106]
5,0.9,Cn1nc(-c2ccc(OC/C(=C/F)CN)cc2Cl)nc1N1CCOCC1 [WX107]
6,2.8,CC(C)n1nc(C(F)F)nc1-c1ccc(OC/C(=C/F)CN)cc1 [WX109]
7,0.4,Cc1nc(-c2ccc(OC/C(=C/F)CN)cc2)sc1C [WX111]
8,1.7,NC/C(=C\F)COc1ccc(-c2nc(C3CC3)n(CCO)n2)cc1 [WX112]
9,1.1,NC/C(=C\F)COc1ccc(-c2nc(C3CC3)n(CC(F)(F)F)n2)cc1 [WX113]
10,0.7,Cn1nc(C2(F)CC2)nc1-c1ccc(OC/C(=C/F)CN)cc1 [WX117]
11,1,Cn1nc(-c2ccc(OC/C(=C/F)CN)cc2)nc1N1CCOCC1 [WX122]
12,2.2,CC(C)n1nc(-c2ccc(OC/C(=C/F)CN)cc2)nc1N1CCOCC1 [WX123]
13,1.4,CC(C)n1nc(-c2ccc(OC/C(=C/F)CN)cc2)nc1C(F)F [WX124]
14,1,CCn1nc(-c2ccc(OC/C(=C/F)CN)cc2)nc1N1CCOCC1 [WX125]
15,0.8,Cn1nc(-c2ccc(OC/C(=C/F)CN)cc2)nc1C1(F)CC1 [WX127]
16,1,CCn1nc(-c2ccc(OC/C(=C/F)CN)cc2)nc1C(F)F [WX128]
17,1,CCn1nc(-c2ccc(OC/C(=C/F)CN)cc2)nc1C1(F)CC1 [WX129]
18,1.4,CC(C)n1nc(-c2ccc(OCC(=CF)CN)cc2)nc1C1(F)CC1 [WX130]
